Experiments:
[1] = target: T1, GBP-1 (Homo sapiens, UniProt P32455); settings: purified GBP-1 protein, GTP hydrolysis; read-out: Km for substrate; cited from earlier work
T1 sequence (P32455 1-592): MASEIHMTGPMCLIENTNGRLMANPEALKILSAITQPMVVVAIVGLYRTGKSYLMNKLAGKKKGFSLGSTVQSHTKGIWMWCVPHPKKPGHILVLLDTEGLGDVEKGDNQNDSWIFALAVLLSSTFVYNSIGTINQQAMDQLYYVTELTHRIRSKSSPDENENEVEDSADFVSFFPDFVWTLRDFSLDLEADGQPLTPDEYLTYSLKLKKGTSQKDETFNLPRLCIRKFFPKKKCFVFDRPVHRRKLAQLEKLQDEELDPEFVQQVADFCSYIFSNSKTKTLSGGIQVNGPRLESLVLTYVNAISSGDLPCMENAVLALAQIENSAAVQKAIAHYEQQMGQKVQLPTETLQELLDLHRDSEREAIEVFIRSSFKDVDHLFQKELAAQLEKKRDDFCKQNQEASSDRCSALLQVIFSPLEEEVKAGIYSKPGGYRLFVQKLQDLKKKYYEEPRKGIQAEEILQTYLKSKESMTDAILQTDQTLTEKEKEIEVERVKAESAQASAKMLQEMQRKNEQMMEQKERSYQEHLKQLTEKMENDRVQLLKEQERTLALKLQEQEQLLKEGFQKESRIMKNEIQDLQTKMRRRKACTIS

[2] = tested on: GBP-2; experiment: siRNA knockdown of GBP-2 protein expression in Cos-7 cells, myc western blot; format: cell-based; settings: Cos-7 cells co-transfected with GBP-2 expression vector, 40 nM siRNA duplex; FIG. 50A
Method: To test for knockdown of protein expression using siRNAs, Cos-7 cells were transfected as described herein with expression vectors encoding either GBP-1 or GBP-2 in the presence and absence of 40 nM siRNA duplex specific for either GBP-1 (“1–3”, […], (SEQ ID NO:79), Qiagen, Inc.) or GBP-2 (“582”, […] (SEQ ID NO:80), Sequitur Inc., Natick, Mass.). Approximately 18 hours following transfection, cells were harvested using trypsin, and lysed in RIPA buffer as described previously. Lysates were electrophoresed through 4–20% tris-glycine gels, transferred to nitrocellulose, blocked overnight with 5% non-fat dry milk and 0.3% BSA in Tris-buffered saline, and probed with a mouse monoclonal antibody specific for the myc epitope tag.

[3] = tested on: MCP-1; experiment: TNFα-induced MCP-1 expression in human umbilical vein endothelial cells, ELISA; format: cell-based; settings: HUVECs, 100 nM siRNA duplexes, 6 hours 10 ng/ml TNFα; FIG. 50B
Method: (§1) In some experiments, human umbilical vein endothelial cells (HUVECs, Clonetics Corp., San Diego, Calif., USA) were transfected using lipofectamine 2000 with 100 nM siRNA duplexes. Cells were cultured overnight, and then stimulated for 6 hours with 10 ng/ml TNFα. Supernatants were analyzed for MCP-1 and IL-8 levels by ELISA (Pharmingen, San Diego, Calif., USA). Cytokine levels were corrected for cell number using the CELL TITER kit (Promega).

[4] = tested on: IL-8; experiment: TNFα-induced IL-8 secretion in human umbilical vein endothelial cells, ELISA; format: cell-based; settings: HUVECs, 100 nM siRNA duplexes, 6 hours 10 ng/ml TNFα
Method: as §1

## Nc1nc2c(ncn2[C@@H]2O[C@H](COP(=O)(O)OP(=O)(O)OP(=O)(O)O)[C@@H](O)[C@H]2O)c(=O)[nH]1 [GTP]
[1]
  Km: 470 µM

## UUUGUAUUUCCUCCAACAUTT (SEQ ID NO:80) (chemistry not given here; listed as Homo sapiens) [Compound 582]
[2]
  knockdown of GBP-2 protein expression: specific knockdown
[3]
  inhibition of TNFα-induced MCP-1 expression: approximately 40%
[4]
  inhibition of IL-8 secretion: failed to inhibit

Reference: patent US7226791B2, “Polynucleotides encoding novel guanylate binding proteins (GBP's)” (Bristol-Myers Squibb Company, priority 2003, dated 2007)
